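Cultured in 96-well plates, cells were exposed to test compound for 48 hours across five concentrations. GI50 is the concentration that inhibits growth by half.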 Activity calls are given as the source filed them. Rule as the data show it: active = GI50 up to about 1.1 µM and inactive = higher.
Assays:
Assay in all cases: NCI-60 cell line screen, 48 h
[1] = system: 786-0
[2] = system: A498
[3] = system: A549
[4] = system: BT-549
[5] = system: CAKI-1
[6] = system: CCRF-CEM
[7] = system: COLO 205
[8] = system: DU-145
[9] = system: EKVX
[10] = system: HCC 2998
[11] = system: HCT-116
[12] = system: HCT-15
[13] = system: HL-60
[14] = system: HOP-62
[15] = system: HOP-92
[16] = system: HT-29
[17] = system: Hs-578T
[18] = system: IGROV-1
[19] = system: K562
[20] = system: KM12
[21] = system: LOX IMVI
[22] = system: M14
[23] = system: MCF7
[24] = system: MDA-MB-231
[25] = system: MDA-MB-435
[26] = system: MDA-N
[27] = system: MOLT-4
[28] = system: NCI-H226
[29] = system: NCI-H23
[30] = system: NCI-H460
[31] = system: NCI-H522
[32] = system: NCI/ADR-RES
[33] = system: OVCAR-3
[34] = system: OVCAR-5
[35] = system: OVCAR-8
[36] = system: PC-3
[37] = system: RPMI-8226
[38] = system: RXF 393
[39] = system: SF-268
[40] = system: SF-295
[41] = system: SF-539
[42] = system: SK-MEL-28
[43] = system: SK-MEL-2
[44] = system: SK-MEL-5
[45] = system: SN12C
[46] = system: SNB-19
[47] = system: SNB-75
[48] = system: SR
[49] = system: SW-620
[50] = system: T47D
[51] = system: TK-10
[52] = system: U-251
[53] = system: UACC-257
[54] = system: UACC-62
[55] = system: UO-31
[56] = system: ACHN
[57] = system: Malme-3M
[58] = system: OVCAR-4
[59] = system: SK-OV-3

SMILES: O=C(O)c1nc2ccccc2nc1NCc1ccc(F)cc1
- GI50 [1]: 42.8 µM (inactive)
- GI50 [2]: > 100 µM (inactive)
- GI50 [3]: 57.7 µM (inactive)
- GI50 [4]: > 100 µM (inactive)
- GI50 [5]: 62.4 µM (inactive)
- GI50 [6]: 50.5 µM (inactive)
- GI50 [7]: 31.9 µM (inactive)
- GI50 [8]: 99.8 µM (inactive)
- GI50 [9]: 45.8 µM (inactive)
- GI50 [10]: 99.1 µM (inactive)
- GI50 [11]: 41.6 µM (inactive)
- GI50 [12]: 16.6 µM
- GI50 [13]: 45.8 µM (inactive)
- GI50 [14]: > 100 µM (inactive)
- GI50 [15]: 95.1 µM (inactive)
- GI50 [16]: 69.5 µM (inactive)
- GI50 [17]: 61.8 µM (inactive)
- GI50 [18]: 46.6 µM (inactive)
- GI50 [19]: 56.1 µM (inactive)
- GI50 [20]: 47.1 µM (inactive)
- GI50 [21]: 36.8 µM (inactive)
- GI50 [22]: > 100 µM (inactive)
- GI50 [23]: 86.5 µM (inactive)
- GI50 [24]: 68.7 µM (inactive)
- GI50 [25]: > 100 µM (inactive)
- GI50 [26]: > 100 µM (inactive)
- GI50 [27]: 67 µM (inactive)
- GI50 [28]: 51.6 µM (inactive)
- GI50 [29]: 54 µM (inactive)
- GI50 [30]: 60.7 µM (inactive)
- GI50 [31]: 48.9 µM (inactive)
- GI50 [32]: 30.2 µM (inactive)
- GI50 [33]: 42.2 µM (inactive)
- GI50 [34]: > 100 µM (inactive)
- GI50 [35]: 53.2 µM (inactive)
- GI50 [36]: > 100 µM (inactive)
- GI50 [37]: 60.4 µM (inactive)
- GI50 [38]: > 100 µM (inactive)
- GI50 [39]: 57 µM (inactive)
- GI50 [40]: 38 µM (inactive)
- GI50 [41]: > 100 µM (inactive)
- GI50 [42]: > 100 µM (inactive)
- GI50 [43]: 94.4 µM (inactive)
- GI50 [44]: 35.8 µM (inactive)
- GI50 [45]: > 100 µM (inactive)
- GI50 [46]: 47.5 µM (inactive)
- GI50 [47]: > 100 µM (inactive)
- GI50 [48]: 42.4 µM (inactive)
- GI50 [49]: 63.8 µM (inactive)
- GI50 [50]: 40.9 µM (inactive)
- GI50 [51]: > 100 µM (inactive)
- GI50 [52]: 52.7 µM (inactive)
- GI50 [53]: > 100 µM (inactive)
- GI50 [54]: > 100 µM (inactive)
- GI50 [55]: 45.3 µM (inactive)

SMILES: CC(C)(C)c1cc(O)ccc1O [E319]
- GI50 [1]: > 54.8 µM (inactive)
- GI50 [2]: > 100 µM (inactive)
- GI50 [3]: > 100 µM (inactive)
- GI50 [56]: > 85.5 µM (inactive)
- GI50 [4]: > 100 µM (inactive)
- GI50 [5]: > 57.8 µM (inactive)
- GI50 [6]: 4.92 µM (inactive)
- GI50 [7]: > 74.6 µM (inactive)
- GI50 [8]: 10.1 µM (inactive)
- GI50 [9]: > 100 µM (inactive)
- GI50 [10]: > 10.5 µM (inactive)
- GI50 [11]: > 57.9 µM (inactive)
- GI50 [12]: > 100 µM
- GI50 [13]: 9.73 µM (inactive)
- GI50 [14]: > 100 µM (inactive)
- GI50 [15]: > 67.5 µM (inactive)
- GI50 [16]: > 100 µM (inactive)
- GI50 [17]: > 24 µM (inactive)
- GI50 [18]: > 100 µM (inactive)
- GI50 [19]: > 68.5 µM (inactive)
- GI50 [20]: > 100 µM (inactive)
- GI50 [21]: > 59.3 µM (inactive)
- GI50 [22]: > 100 µM (inactive)
- GI50 [23]: > 100 µM (inactive)
- GI50 [24]: 1.86 µM (inactive)
- GI50 [25]: > 56.8 µM (inactive)
- GI50 [26]: > 100 µM (inactive)
- GI50 [27]: 10.3 µM (inactive)
- GI50 [57]: > 19.3 µM (inactive)
- GI50 [28]: > 65.5 µM (inactive)
- GI50 [29]: > 100 µM (inactive)
- GI50 [30]: > 12.8 µM (inactive)
- GI50 [31]: 5.57 µM (inactive)
- GI50 [32]: > 79.6 µM (inactive)
- GI50 [33]: 43.6 µM (inactive)
- GI50 [58]: > 56.4 µM (inactive)
- GI50 [34]: > 100 µM (inactive)
- GI50 [35]: > 63.7 µM (inactive)
- GI50 [36]: 1.57 µM (inactive)
- GI50 [37]: 38.2 µM (inactive)
- GI50 [39]: > 18.7 µM (inactive)
- GI50 [40]: > 100 µM (inactive)
- GI50 [41]: > 100 µM (inactive)
- GI50 [42]: > 100 µM (inactive)
- GI50 [43]: 1.71 µM (inactive)
- GI50 [44]: > 100 µM (inactive)
- GI50 [59]: > 100 µM (inactive)
- GI50 [45]: > 100 µM (inactive)
- GI50 [46]: > 100 µM (inactive)
- GI50 [47]: 7.71 µM (inactive)
- GI50 [48]: 1.1 µM (active)
- GI50 [49]: 37.8 µM (inactive)
- GI50 [50]: 3.83 µM (inactive)
- GI50 [51]: 8.32 µM (inactive)
- GI50 [52]: 0.675 µM (active)
- GI50 [53]: 9.08 µM (inactive)
- GI50 [54]: > 100 µM (inactive)
- GI50 [55]: > 58.6 µM (inactive)

Reference: ChEMBL document CHEMBL1201862, “PubChem BioAssay data set” (2004)
